# Source: ChEMBL document CHEMBL1201861, “Genomics of Drug Sensitity in Cancer screening data, Wellcome Trust Sanger Institute”
# Tested on: ES3;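 note: growth inhibition of ES3 cells, read out with a cell viability assay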
# Assay: cells
# Type: functional, cell-based, Homo sapiens
# Details: Homo sapiens, ES3
# Description: SANGER: Inhibition of human ES3 cell growth in a cell viability assay.
row,Compound,IC50
1,Cc1cc(N2CCOCC2)cc2[nH]c(-c3c(NC[C@@H](O)c4cccc(Cl)c4)cc[nH]c3=O)nc12,> 5.12 µM

# Tested on: KNS-81-FD;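 note: growth inhibition of KNS-81-FD cells, read out with a cell viability assay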
# Assay: cells
# Type: functional, cell-based, Homo sapiens
# Details: Homo sapiens, KNS-81-FD
# Description: SANGER: Inhibition of human KNS-81-FD cell growth in a cell viability assay.
row,Compound,IC50
1,Cc1cc(N2CCOCC2)cc2[nH]c(-c3c(NC[C@@H](O)c4cccc(Cl)c4)cc[nH]c3=O)nc12,> 5.12 µM

# Tested on: MLMA;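 note: growth inhibition of MLMA cells (human), determined through a cell viability readout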
# Assay: cells
# Type: functional, cell-based, Homo sapiens
# Details: Homo sapiens, MLMA
# Description: SANGER: Inhibition of human MLMA cell growth in a cell viability assay.
row,Compound,IC50
1,Cc1cc(N2CCOCC2)cc2[nH]c(-c3c(NC[C@@H](O)c4cccc(Cl)c4)cc[nH]c3=O)nc12,2010 nM

# Tested on: CGTH-W-1;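 note: growth inhibition of human CGTH-W-1 cells measured by cell viability assay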
# Assay: cells
# Type: functional, cell-based, Homo sapiens
# Details: Homo sapiens, CGTH-W-1
# Description: SANGER: Inhibition of human CGTH-W-1 cell growth in a cell viability assay.
row,Compound,IC50
1,Cc1cc(N2CCOCC2)cc2[nH]c(-c3c(NC[C@@H](O)c4cccc(Cl)c4)cc[nH]c3=O)nc12,> 5.12 µM

# Tested on: PSN1;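 note: suppression of growth of human PSN1 cells, read out by a cell viability assay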
# Assay: cells
# Type: functional, cell-based, Homo sapiens
# Details: Homo sapiens, PSN1
# Description: SANGER: Inhibition of human PSN1 cell growth in a cell viability assay.
row,Compound,IC50
1,Cc1cc(N2CCOCC2)cc2[nH]c(-c3c(NC[C@@H](O)c4cccc(Cl)c4)cc[nH]c3=O)nc12,395 nM

# Tested on: U-266
# Assay: cells
# Type: functional, cell-based, Homo sapiens
# Details: Homo sapiens, U-266
# Description: SANGER: Inhibition of human U-266 cell growth in a cell viability assay.
row,Compound,IC50
1,Cc1cc(N2CCOCC2)cc2[nH]c(-c3c(NC[C@@H](O)c4cccc(Cl)c4)cc[nH]c3=O)nc12,> 5.12 µM

# Tested on: LC-2-ad;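 note: growth inhibition of human LC-2-ad cells, read out with a cell viability assay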
# Assay: cells
# Type: functional, cell-based, Homo sapiens
# Details: Homo sapiens, LC-2-ad
# Description: SANGER: Inhibition of human LC-2-ad cell growth in a cell viability assay.
row,Compound,IC50
1,Cc1cc(N2CCOCC2)cc2[nH]c(-c3c(NC[C@@H](O)c4cccc(Cl)c4)cc[nH]c3=O)nc12,117 nM

# Tested on: JVM-3;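 note: growth inhibition of human JVM-3 cells, read out with a cell viability assay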
# Assay: cells
# Type: functional, cell-based, Homo sapiens
# Details: Homo sapiens, JVM-3
# Description: SANGER: Inhibition of human JVM-3 cell growth in a cell viability assay.
row,Compound,IC50
1,Cc1cc(N2CCOCC2)cc2[nH]c(-c3c(NC[C@@H](O)c4cccc(Cl)c4)cc[nH]c3=O)nc12,> 5.12 µM

# Tested on: LS-411N
# Assay: cells
# Type: functional, cell-based, Homo sapiens
# Details: Homo sapiens, LS-411N
row,Compound,IC50
1,Cc1cc(N2CCOCC2)cc2[nH]c(-c3c(NC[C@@H](O)c4cccc(Cl)c4)cc[nH]c3=O)nc12,498 nM

# Tested on: SK-MEL-2;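 note: growth inhibition of human SK-MEL-2 cells measured with a cell viability assay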
# Assay: cells
# Type: functional, cell-based, Homo sapiens
# Details: Homo sapiens, SK-MEL-2
# Description: SANGER: Inhibition of human SK-MEL-2 cell growth in a cell viability assay.
row,Compound,IC50
1,Cc1cc(N2CCOCC2)cc2[nH]c(-c3c(NC[C@@H](O)c4cccc(Cl)c4)cc[nH]c3=O)nc12,> 5.12 µM

# Tested on: HT
# Assay: cells
# Type: functional, cell-based, Homo sapiens
# Details: Homo sapiens, HT
# Description: SANGER: Inhibition of human HT cell growth in a cell viability assay.
row,Compound,IC50
1,Cc1cc(N2CCOCC2)cc2[nH]c(-c3c(NC[C@@H](O)c4cccc(Cl)c4)cc[nH]c3=O)nc12,> 5.12 µM

# Tested on: KARPAS-299
# Assay: cells
# Type: functional, cell-based, Homo sapiens
# Details: Homo sapiens, KARPAS-299
# Description: SANGER: Inhibition of human KARPAS-299 cell growth in a cell viability assay.
row,Compound,IC50
1,Cc1cc(N2CCOCC2)cc2[nH]c(-c3c(NC[C@@H](O)c4cccc(Cl)c4)cc[nH]c3=O)nc12,3.85 µM

# Tested on: EW-1;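 note: growth inhibition of the human EW-1 cell line, read out by a cell viability assay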
# Assay: cells
# Type: functional, cell-based, Homo sapiens
# Details: Homo sapiens, EW-1
# Description: SANGER: Inhibition of human EW-1 cell growth in a cell viability assay.
row,Compound,IC50
1,Cc1cc(N2CCOCC2)cc2[nH]c(-c3c(NC[C@@H](O)c4cccc(Cl)c4)cc[nH]c3=O)nc12,173 nM

# Tested on: MN-60;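 note: growth inhibition of the MN-60 cell line, determined with a cell viability assay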
# Assay: cells
# Type: functional, cell-based, Homo sapiens
# Details: Homo sapiens, MN-60
# Description: SANGER: Inhibition of human MN-60 cell growth in a cell viability assay.
row,Compound,IC50
1,Cc1cc(N2CCOCC2)cc2[nH]c(-c3c(NC[C@@H](O)c4cccc(Cl)c4)cc[nH]c3=O)nc12,> 5.12 µM

# Tested on: D-247MG
# Assay: cells
# Type: functional, cell-based
# Details: Homo sapiens
# Description: SANGER: Inhibition of human D-247MG cell growth in a cell viability assay.
row,Compound,IC50
1,Cc1cc(N2CCOCC2)cc2[nH]c(-c3c(NC[C@@H](O)c4cccc(Cl)c4)cc[nH]c3=O)nc12,> 5.12 µM

# Tested on: RKO;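 note: growth inhibition of human RKO cells, read out with a cell viability assay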
# Assay: cells
# Type: functional, cell-based, Homo sapiens
# Details: Homo sapiens, RKO
# Description: SANGER: Inhibition of human RKO cell growth in a cell viability assay.
row,Compound,IC50
1,Cc1cc(N2CCOCC2)cc2[nH]c(-c3c(NC[C@@H](O)c4cccc(Cl)c4)cc[nH]c3=O)nc12,1000 nM

# Tested on: J-RT3-T3-5;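 note: cell viability assay measuring growth inhibition of human J-RT3-T3-5 cells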
# Assay: cells
# Type: functional, cell-based, Homo sapiens
# Details: Homo sapiens, J-RT3-T3-5
# Description: SANGER: Inhibition of human J-RT3-T3-5 cell growth in a cell viability assay.
row,Compound,IC50
1,Cc1cc(N2CCOCC2)cc2[nH]c(-c3c(NC[C@@H](O)c4cccc(Cl)c4)cc[nH]c3=O)nc12,> 5.12 µM

# Tested on: NCI-H1092;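 note: cell growth inhibition measured with a cell viability assay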
# Assay: cells
# Type: functional, cell-based, Homo sapiens
# Details: Homo sapiens, NCI-H1092
# Description: SANGER: Inhibition of human NCI-H1092 cell growth in a cell viability assay.
row,Compound,IC50
1,Cc1cc(N2CCOCC2)cc2[nH]c(-c3c(NC[C@@H](O)c4cccc(Cl)c4)cc[nH]c3=O)nc12,> 5.12 µM

# Tested on: TGBC1TKB;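 note: growth inhibition of TGBC1TKB cells, read out by a cell viability assay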
# Assay: cells
# Type: functional, cell-based, Homo sapiens
# Details: Homo sapiens, TGBC1TKB
# Description: SANGER: Inhibition of human TGBC1TKB cell growth in a cell viability assay.
row,Compound,IC50
1,Cc1cc(N2CCOCC2)cc2[nH]c(-c3c(NC[C@@H](O)c4cccc(Cl)c4)cc[nH]c3=O)nc12,2310 nM

# Tested on: DSH1;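 note: growth inhibition of human DSH1 cells, measured with a cell viability readout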
# Assay: cells
# Type: functional, cell-based
# Details: Homo sapiens
# Description: SANGER: Inhibition of human DSH1 cell growth in a cell viability assay.
row,Compound,IC50
1,Cc1cc(N2CCOCC2)cc2[nH]c(-c3c(NC[C@@H](O)c4cccc(Cl)c4)cc[nH]c3=O)nc12,> 5.12 µM

# Tested on: RS4-11;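 note: growth inhibition of RS4-11 cells, read out by a cell viability assay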
# Assay: cells
# Type: functional, cell-based, Homo sapiens
# Details: Homo sapiens, RS4-11
# Description: SANGER: Inhibition of human RS4-11 cell growth in a cell viability assay.
row,Compound,IC50
1,Cc1cc(N2CCOCC2)cc2[nH]c(-c3c(NC[C@@H](O)c4cccc(Cl)c4)cc[nH]c3=O)nc12,1800 nM

# Tested on: NCI-H1581;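 note: cell growth inhibition read out by a viability assay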
# Assay: cells
# Type: functional, cell-based, Homo sapiens
# Details: Homo sapiens, NCI-H1581
# Description: SANGER: Inhibition of human NCI-H1581 cell growth in a cell viability assay.
row,Compound,IC50
1,Cc1cc(N2CCOCC2)cc2[nH]c(-c3c(NC[C@@H](O)c4cccc(Cl)c4)cc[nH]c3=O)nc12,> 5.12 µM

# Tested on: KU812 cell line;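 note: growth inhibition of KU812 cells, read out with a cell viability assay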
# Assay: cells
# Type: functional, cell-based, Homo sapiens
# Details: Homo sapiens, KU812
# Description: SANGER: Inhibition of human KU812 cell growth in a cell viability assay.
row,Compound,IC50
1,Cc1cc(N2CCOCC2)cc2[nH]c(-c3c(NC[C@@H](O)c4cccc(Cl)c4)cc[nH]c3=O)nc12,> 5.12 µM

# Tested on: TE-11;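 note: growth inhibition of human TE-11 cells, read out by a cell viability assay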
# Assay: cells
# Type: functional, cell-based
# Details: Homo sapiens
# Description: SANGER: Inhibition of human TE-11 cell growth in a cell viability assay.
row,Compound,IC50
1,Cc1cc(N2CCOCC2)cc2[nH]c(-c3c(NC[C@@H](O)c4cccc(Cl)c4)cc[nH]c3=O)nc12,152 nM

# Tested on: D-263MG
# Assay: cells
# Type: functional, cell-based, Homo sapiens
# Details: Homo sapiens, D-263MG
# Description: SANGER: Inhibition of human D-263MG cell growth in a cell viability assay.
row,Compound,IC50
1,Cc1cc(N2CCOCC2)cc2[nH]c(-c3c(NC[C@@H](O)c4cccc(Cl)c4)cc[nH]c3=O)nc12,> 5.12 µM

# Tested on: OCI-AML2;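 note: growth inhibition of OCI-AML2 cells, read out with a cell viability assay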
# Assay: cells
# Type: functional, cell-based, Homo sapiens
# Details: Homo sapiens, OCI-AML2
# Description: SANGER: Inhibition of human OCI-AML2 cell growth in a cell viability assay.
row,Compound,IC50
1,Cc1cc(N2CCOCC2)cc2[nH]c(-c3c(NC[C@@H](O)c4cccc(Cl)c4)cc[nH]c3=O)nc12,1310 nM

# Tested on: NCI-H446;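 note: growth inhibition of NCI-H446 cells determined by a cell viability assay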
# Assay: cells
# Type: functional, cell-based, Homo sapiens
# Details: Homo sapiens, NCI-H446
# Description: SANGER: Inhibition of human NCI-H446 cell growth in a cell viability assay.
row,Compound,IC50
1,Cc1cc(N2CCOCC2)cc2[nH]c(-c3c(NC[C@@H](O)c4cccc(Cl)c4)cc[nH]c3=O)nc12,> 5.12 µM

# Tested on: BB65-RCC;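 note: growth inhibition of the cell line, measured with a cell viability assay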
# Assay: cells
# Type: functional, cell-based, Homo sapiens
# Details: Homo sapiens, BB65-RCC
# Description: SANGER: Inhibition of human BB65-RCC cell growth in a cell viability assay.
row,Compound,IC50
1,Cc1cc(N2CCOCC2)cc2[nH]c(-c3c(NC[C@@H](O)c4cccc(Cl)c4)cc[nH]c3=O)nc12,> 5.12 µM

# Tested on: HCE-4;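 note: cell viability assay measuring inhibition of growth in the human HCE-4 cell line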
# Assay: cells
# Type: functional, cell-based
# Details: Homo sapiens
# Description: SANGER: Inhibition of human HCE-4 cell growth in a cell viability assay.
row,Compound,IC50
1,Cc1cc(N2CCOCC2)cc2[nH]c(-c3c(NC[C@@H](O)c4cccc(Cl)c4)cc[nH]c3=O)nc12,> 5.12 µM

# Tested on: MZ1-PC;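 note: cell viability assay measuring growth inhibition of human MZ1-PC cells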
# Assay: cells
# Type: functional, cell-based, Homo sapiens
# Details: Homo sapiens, MZ1-PC
# Description: SANGER: Inhibition of human MZ1-PC cell growth in a cell viability assay.
row,Compound,IC50
1,Cc1cc(N2CCOCC2)cc2[nH]c(-c3c(NC[C@@H](O)c4cccc(Cl)c4)cc[nH]c3=O)nc12,764 nM

# Tested on: EW-3;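 note: cell viability assay read-out, IC50 reflects inhibition of growth of the EW-3 cells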
# Assay: cells
# Type: functional, cell-based, Homo sapiens
# Details: Homo sapiens, EW-3
# Description: SANGER: Inhibition of human EW-3 cell growth in a cell viability assay.
row,Compound,IC50
1,Cc1cc(N2CCOCC2)cc2[nH]c(-c3c(NC[C@@H](O)c4cccc(Cl)c4)cc[nH]c3=O)nc12,4.76 µM

# Tested on: ES1;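 note: growth inhibition of ES1 cells, read out with a cell viability assay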
# Assay: cells
# Type: functional, cell-based, Homo sapiens
# Details: Homo sapiens, ES1
# Description: SANGER: Inhibition of human ES1 cell growth in a cell viability assay.
row,Compound,IC50
1,Cc1cc(N2CCOCC2)cc2[nH]c(-c3c(NC[C@@H](O)c4cccc(Cl)c4)cc[nH]c3=O)nc12,1620 nM

# Tested on: A253 cell line;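 note: growth inhibition of A253 cells, read out with a cell viability assay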
# Assay: cells
# Type: functional, cell-based, Homo sapiens
# Details: Homo sapiens, A253
# Description: SANGER: Inhibition of human A253 cell growth in a cell viability assay.
row,Compound,IC50
1,Cc1cc(N2CCOCC2)cc2[nH]c(-c3c(NC[C@@H](O)c4cccc(Cl)c4)cc[nH]c3=O)nc12,> 5.12 µM

# Tested on: TE-5;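 note: inhibition of cell growth, read out by a cell viability assay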
# Assay: cells
# Type: functional, cell-based, Homo sapiens
# Details: Homo sapiens, TE-5
# Description: SANGER: Inhibition of human TE-5 cell growth in a cell viability assay.
row,Compound,IC50
1,Cc1cc(N2CCOCC2)cc2[nH]c(-c3c(NC[C@@H](O)c4cccc(Cl)c4)cc[nH]c3=O)nc12,> 5.12 µM

# Tested on: NCI-H1648;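 note: cell viability assay measuring inhibition of NCI-H1648 cell growth, from the Sanger screening data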
# Assay: cells
# Type: functional, cell-based, Homo sapiens
# Details: Homo sapiens, NCI-H1648
# Description: SANGER: Inhibition of human NCI-H1648 cell growth in a cell viability assay.
row,Compound,IC50
1,Cc1cc(N2CCOCC2)cc2[nH]c(-c3c(NC[C@@H](O)c4cccc(Cl)c4)cc[nH]c3=O)nc12,190 nM

# Tested on: KP-N-YS;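 note: cell viability assay measuring inhibition of cell line growth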
# Assay: cells
# Type: functional, cell-based, Homo sapiens
# Details: Homo sapiens, KP-N-YS
# Description: SANGER: Inhibition of human KP-N-YS cell growth in a cell viability assay.
row,Compound,IC50
1,Cc1cc(N2CCOCC2)cc2[nH]c(-c3c(NC[C@@H](O)c4cccc(Cl)c4)cc[nH]c3=O)nc12,> 5.12 µM

# Tested on: KALS-1;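 note: growth inhibition of KALS-1 cells, determined with a cell viability assay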
# Assay: cells
# Type: functional, cell-based, Homo sapiens
# Details: Homo sapiens, KALS-1; read-out: IC50
# Description: SANGER: Inhibition of human KALS-1 cell growth in a cell viability assay.
row,Compound,IC50
1,Cc1cc(N2CCOCC2)cc2[nH]c(-c3c(NC[C@@H](O)c4cccc(Cl)c4)cc[nH]c3=O)nc12,> 5.12 µM

# Tested on: NOS-1;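 note: growth inhibition of the human NOS-1 cell line, read out with a cell viability assay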
# Assay: cells
# Type: functional, cell-based, Homo sapiens
# Details: Homo sapiens, NOS-1
# Description: SANGER: Inhibition of human NOS-1 cell growth in a cell viability assay.
row,Compound,IC50
1,Cc1cc(N2CCOCC2)cc2[nH]c(-c3c(NC[C@@H](O)c4cccc(Cl)c4)cc[nH]c3=O)nc12,74.4 nM

# Tested on: LU-134-A
# Assay: cells
# Type: functional, cell-based, Homo sapiens
# Details: Homo sapiens, LU-134-A
# Description: SANGER: Inhibition of human LU-134-A cell growth in a cell viability assay.
row,Compound,IC50
1,Cc1cc(N2CCOCC2)cc2[nH]c(-c3c(NC[C@@H](O)c4cccc(Cl)c4)cc[nH]c3=O)nc12,1600 nM

# Tested on: BT-474
# Assay: cells
# Type: functional, cell-based, Homo sapiens
# Details: Homo sapiens, BT-474
# Description: SANGER: Inhibition of human BT-474 cell growth in a cell viability assay.
row,Compound,IC50
1,Cc1cc(N2CCOCC2)cc2[nH]c(-c3c(NC[C@@H](O)c4cccc(Cl)c4)cc[nH]c3=O)nc12,> 5.12 µM

# Tested on: OMC-1;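 note: growth inhibition of the OMC-1 cell line, measured by a cell viability assay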
# Assay: cells
# Type: functional, cell-based, Homo sapiens
# Details: Homo sapiens, OMC-1
# Description: SANGER: Inhibition of human OMC-1 cell growth in a cell viability assay.
row,Compound,IC50
1,Cc1cc(N2CCOCC2)cc2[nH]c(-c3c(NC[C@@H](O)c4cccc(Cl)c4)cc[nH]c3=O)nc12,> 5.12 µM

# Tested on: UACC-257
# Assay: cells
# Type: functional, cell-based, Homo sapiens
# Details: Homo sapiens, UACC-257
# Description: SANGER: Inhibition of human UACC-257 cell growth in a cell viability assay.
row,Compound,IC50
1,Cc1cc(N2CCOCC2)cc2[nH]c(-c3c(NC[C@@H](O)c4cccc(Cl)c4)cc[nH]c3=O)nc12,> 5.12 µM

# Tested on: KG-1;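 note: growth inhibition of KG-1 cells, read out by a cell viability assay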
# Assay: cells
# Type: functional, cell-based, Homo sapiens
# Details: Homo sapiens, KG-1
# Description: SANGER: Inhibition of human KG-1 cell growth in a cell viability assay.
row,Compound,IC50
1,Cc1cc(N2CCOCC2)cc2[nH]c(-c3c(NC[C@@H](O)c4cccc(Cl)c4)cc[nH]c3=O)nc12,> 5.12 µM

# Tested on: KY821;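 note: growth inhibition of human KY821 cells, read out by a cell viability assay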
# Assay: cells
# Type: functional, cell-based, Homo sapiens
# Details: Homo sapiens, KY821
# Description: SANGER: Inhibition of human KY821 cell growth in a cell viability assay.
row,Compound,IC50
1,Cc1cc(N2CCOCC2)cc2[nH]c(-c3c(NC[C@@H](O)c4cccc(Cl)c4)cc[nH]c3=O)nc12,> 5.12 µM

# Tested on: KM12;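 note: KM12 cell growth inhibition, read out with a cell viability assay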
# Assay: cells
# Type: functional, cell-based, Homo sapiens
# Details: Homo sapiens, KM12
# Description: SANGER: Inhibition of human KM12 cell growth in a cell viability assay.
row,Compound,IC50
1,Cc1cc(N2CCOCC2)cc2[nH]c(-c3c(NC[C@@H](O)c4cccc(Cl)c4)cc[nH]c3=O)nc12,28.4 nM

# Tested on: NCI-H526;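 note: growth inhibition of the human NCI-H526 cell line, measured by a cell viability assay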
# Assay: cells
# Type: functional, cell-based, Homo sapiens
# Details: Homo sapiens, NCI-H526
# Description: SANGER: Inhibition of human NCI-H526 cell growth in a cell viability assay.
row,Compound,IC50
1,Cc1cc(N2CCOCC2)cc2[nH]c(-c3c(NC[C@@H](O)c4cccc(Cl)c4)cc[nH]c3=O)nc12,> 5.12 µM

# Tested on: NCI-H1770;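 note: growth inhibition of NCI-H1770 cells determined with a viability readout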
# Assay: cells
# Type: functional, cell-based, Homo sapiens
# Details: Homo sapiens, NCI-H1770
# Description: SANGER: Inhibition of human NCI-H1770 cell growth in a cell viability assay.
row,Compound,IC50
1,Cc1cc(N2CCOCC2)cc2[nH]c(-c3c(NC[C@@H](O)c4cccc(Cl)c4)cc[nH]c3=O)nc12,> 5.12 µM

# Tested on: SW 962;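 note: growth inhibition of human SW962 cells, read out by a cell viability assay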
# Assay: cells
# Type: functional, cell-based, Homo sapiens
# Details: Homo sapiens, SW 962
# Description: SANGER: Inhibition of human SW962 cell growth in a cell viability assay.
row,Compound,IC50
1,Cc1cc(N2CCOCC2)cc2[nH]c(-c3c(NC[C@@H](O)c4cccc(Cl)c4)cc[nH]c3=O)nc12,1200 nM

# Tested on: SNU1;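 note: growth inhibition of human NCI-SNU-1 cells, measured with a cell viability assay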
# Assay: cells
# Type: functional, cell-based, Homo sapiens
# Details: Homo sapiens, SNU1
# Description: SANGER: Inhibition of human NCI-SNU-1 cell growth in a cell viability assay.
row,Compound,IC50
1,Cc1cc(N2CCOCC2)cc2[nH]c(-c3c(NC[C@@H](O)c4cccc(Cl)c4)cc[nH]c3=O)nc12,> 5.12 µM

# Tested on: COLO-824
# Assay: cells
# Type: functional, cell-based, Homo sapiens
# Details: Homo sapiens, COLO-824
# Description: SANGER: Inhibition of human COLO-824 cell growth in a cell viability assay.
row,Compound,IC50
1,Cc1cc(N2CCOCC2)cc2[nH]c(-c3c(NC[C@@H](O)c4cccc(Cl)c4)cc[nH]c3=O)nc12,> 5.12 µM
